Measured values taken from patent publication US20070248646A1, “Use of azurocidin inhibitors in prevention and treatment of ocular vascular leakage” (priority 2006, published 2007).

Experiments:
[1] = target: T1, human neutrophil azurocidin (Homo sapiens, UniProt P20160); assay: Suppression of azurocidin-induced BRB breakdown (Evans Blue); type: in vivo, Brown Norway rats
T1 construct: purchased Athens Research and Biotechology, Atlanta, Ga
T1 sequence (P20160 27-248): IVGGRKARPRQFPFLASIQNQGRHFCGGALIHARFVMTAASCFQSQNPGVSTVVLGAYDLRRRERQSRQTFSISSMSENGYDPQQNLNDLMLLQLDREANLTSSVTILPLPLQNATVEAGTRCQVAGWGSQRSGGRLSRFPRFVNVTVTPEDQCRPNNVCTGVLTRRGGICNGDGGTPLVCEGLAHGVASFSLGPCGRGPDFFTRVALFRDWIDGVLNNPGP
Method: (§1) This study employed Brown Norway rats, AZ (1 μg, 10 μg, 20 μg), PBS, aprotinin, VEGF164, and polyclonal anti-AZ antibody (1 μg). Briefly, Brown Norway rats received intravitreal injections of AZ (1 μg, 10 μg and 20 μg) in one eye and PBS in the contralateral eye. BRB breakdown was quantified using the Evans Blue (EB) technique at 1 hour, 3 hours, and 24 hours after intravitreal injection of AZ or PBS. To assess whether AZ induced retinal leukostasis, firm leukocyte adhesion was quantified at 3 hours and 24 hours post AZ injection (10 μg) using the ex vivo conconavalin leukostasis assay. To block AZ, rats were treated with a single intravenous injection of aprotinin (30,000KIU), prior to the intravitreal injections. To investigate whether AZ was involved in VEGF-induced BRB breakdown, rats received intravitreal injections of 50 ng recombinant mouse VEGF164 in one eye and PBS in the other eye and were treated intravenously with aprotinin (50,000KIU every eight hours) or polyclonal anti-AZ antibody (1 μg). BRB breakdown and retinal leukostasis were quantified 24 hours after VEGF injection.
In a second group, the rats were additionally treated intravenously with the azurocidin inhibitor, aprotinin (Trasylol®, Bayer Pharmaceuticals). […] The retinas were analyzed one hour after azurocidin administration using the Evans Blue technique.
Retinal vascular permeability was quantified as previously described (Qaum et al. (2002) supra, Xu et al. (2001) INVEST. OPHTHALMOL. VIS. SCI. 42; 789-94). […] The background-subtracted absorbance was determined by measuring each sample at 620 nm (the absorbance maximum for Evans blue dye in formamide) and 740 nm (the absorbance minimum) with a spectrophotometer. The concentration of dye in the plasma was calculated from a standard curve of Evans blue dye in formamide. […] The background-subtracted absorbance was determined by measuring each sample at 620 nm (the absorbance maximum for Evans blue dye in formamide) and 740 nm (the absorbance minimum). The concentration of dye in the extracts was calculated from a standard curve of Evans blue dye in formamide. […]

[2] = test system: VEGF-induced retinal leukostasis; assay: Concanavalin A ex vivo retinal leukostasis quantification, VEGF-induced; type: in vivo, Brown Norway rats
Method: as §1
Deep anesthesia was induced with xylazine and ketamine as above. The chest cavity was carefully opened and the left ventricle was entered with a 14-gauge perfusion cannula fixed to a vessel clamp; care was taken to avoid ventricular obstruction. The right atrium was opened with a 12-gauge needle to achieve outflow. With the heart providing the motive force, 250 ml/kg PBS (roughly 30 ml of PBS quickly) was perfused to clear erythrocytes and non-sticking leukocytes, followed by perfusion with FITC-coupled Concanavalin A lectin (20 μg/ml in PBS, pH 7.4, total concentration 5 mg/kg) (Vector Labs, Burlingame, Calif.). The latter stained adherent leukocytes and the vascular endothelium. Lectin staining was followed by PBS perfusion (30 ml quickly).
The retinas were flat-mounted in a water-based fluorescence-anti-fading medium (Southern Biotechnology, Birmingham, Ala.) and imaged via fluorescence microscopy (Leica upright microscope, Hamamatsu digital high sensitivity camera, openlab imaging software). The total number of adherent leukocytes per retina was counted in a masked fashion.

block of AZ-induced leakage ([1]; single i.v. 30,000KIU 1 hour before intravitreal azurocidin 20 μg, Evans Blue 1 hour later): greater than 98%
Evans Blue retinal leakage in AZ-injected eyes ([1]; single i.v. 30,000KIU 1 hour before intravitreal azurocidin, AZ alone 45±17): 6±0.64 μl plasma/g retina/h
Substance: aprotinin
basal levels of retinal vascular leakage ([1]; aprotinin treatment alone (PBS-injected eye)): did not affect basal levels of retinal vascular leakage
leukocyte adhesion as a percentage of leukocyte adhesion in the contralateral PBS-injected eye ([2]; 24 hours after 50 ng VEGF, aprotinin 50,000 KIU i.v. 1 hour before, 8 and 16 hours after): 252%
leukocyte adhesion, VEGF-injected vs VEGF- and aprotinin-treated eyes ([2]; P>0.05): did not differ significantly
